Patent publication US11530244B2, “Cyclic polypeptides for PCSK9 inhibition” (priority 2018, dated 2022)
pIC50: −log10 of the molar value. Starred links: 1 amine or outer side, 2 acyl side, 3 side chain; linkers in the order of their positions; H or OH if unused. Positions of bridges follow the written chain, without caps; N, C: chain ends. Non-standard residues stand in square brackets, D forms with d. Residues, ends and D or L forms follow the SMILES beside them. *: point of attachment. X58 = O=C([C@@H]1[C@H](OCC=[*:3])CCN1[*:1])[*:2]; Ala(imidazol-2-yl) = N[C@@H](Cc1ncc[nH]1)C(=O)O; Trp(5-OH) = N[C@@H](Cc1c[nH]c2ccc(O)cc12)C(=O)O; Phe(4-COOH) = N[C@@H](Cc1ccc(C(=O)O)cc1)C(=O)O; Trp(5-F) = N[C@@H](Cc1c[nH]c2ccc(F)cc12)C(=O)O; Isophthaloyl = O=C(c1cccc(C(=O)[*:2])c1)[*:1]; Acetyl(2-(4-imidazolyl)) = O=C(Cc1c[nH]cn1)*; X3 = O=C(CCSCc1cc(F)cc(CSCCN[*:1])c1)[*:2]; X57 = O=C([C@@H](CCCCC=[*:3])N[*:1])[*:2]; Lys(Me3) = C[N+](C)(C)CCCC[C@H](N)C(=O)O; Pro(cis-4-F) = O=C(O)[C@@H]1C[C@H](F)CN1; X4 = O=C(CCSCc1cccc(CSCCN[*:1])c1)[*:2]; Orn(N3) = [N-]=[N+]=NCCC[C@H](N)C(=O)O; mXylylene = c1cc(C[*:1])cc(C[*:2])c1; AEF = NCCOc1ccc(C[C@H](N)C(=O)O)cc1; X53 = C#CCCC[C@H](N[*:1])C(=O)[*:2]; Lys(Me2) = CN(C)CCCC[C@H](N)C(=O)O; X6 = O=C(Cc1ccc(CN[*:2])cc1)[*:1]; X7 = O=C(Cc1ccc(CN[*:1])cc1)[*:2]; Asu = N[C@@H](CCCCCC(=O)O)C(=O)O; Aad = N[C@@H](CCCC(=O)O)C(=O)O; aThr = C[C@H](O)[C@H](N)C(=O)O; Aoc(2) = CCCCCC[C@H](N)C(=O)O; αMeP = C[C@@]1(C(=O)O)CCCN1; Orn = NCCC[C@H](N)C(=O)O; Dab = NCC[C@H](N)C(=O)O; Dap = NC[C@H](N)C(=O)O; X2 = O=C(C[*:2])[*:1]; AEA = NCCOCC(=O)O; GABA = NCCCC(=O)O; Mpa = O=C(O)CCS

Each compound was assayed against PCSK9 (Homo sapiens (Human), UniProt Q8NBP7) (assay: PCSK9 Alexa FRET Standard assay (displacement of AlexaFluor647 tagged cyclic peptide Reagent A)). Conditions: PCSK9 Alexa FRET Standard assay, 0.5 nM PCSK9, 20 nM AF cyclic peptide Reagent A.
Assay type: binding
In short: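 TR-FRET displacement: 0.5 nM biotinylated PCSK9 with 1.25 nM Strep-Eu and 20 nM AlexaFluor-tagged cyclic peptide (final) in 50 mM HEPES pH 7.4, 0.15 M NaCl, 5 mM CaCl2, 0.01% BSA, 0.01% P20, ≥2 h at room temperature. IC50 from sigmoidal fit, converted to Ki via peptide KD; falling Eu counts flagged false positives.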

PCSK9, sequence (Q8NBP7 153-692): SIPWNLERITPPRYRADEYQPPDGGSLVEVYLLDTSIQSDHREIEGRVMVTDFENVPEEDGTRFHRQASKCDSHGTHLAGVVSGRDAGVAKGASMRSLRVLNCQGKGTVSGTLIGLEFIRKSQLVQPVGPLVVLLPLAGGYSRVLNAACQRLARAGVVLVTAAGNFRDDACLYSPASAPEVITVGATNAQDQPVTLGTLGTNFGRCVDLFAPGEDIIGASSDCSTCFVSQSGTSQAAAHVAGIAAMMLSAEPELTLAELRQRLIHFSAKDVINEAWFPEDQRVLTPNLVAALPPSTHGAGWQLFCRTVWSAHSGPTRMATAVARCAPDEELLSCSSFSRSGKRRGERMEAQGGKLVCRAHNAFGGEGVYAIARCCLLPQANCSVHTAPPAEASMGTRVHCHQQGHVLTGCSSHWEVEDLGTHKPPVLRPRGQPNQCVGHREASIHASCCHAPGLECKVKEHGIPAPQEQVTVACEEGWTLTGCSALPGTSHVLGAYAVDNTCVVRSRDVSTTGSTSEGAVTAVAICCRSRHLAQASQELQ

Compound | pIC50
COc1ccc(C[C@@H]2NC(=O)[C@H]([C@@H](C)O)NC(=O)[C@@H]3C[C@H](F)CN3C(=O)[C@H](Cc3c[nH]c4ccc(F)cc34)NC(=O)[C@H](Cc3c[nH]c4ccc(F)cc34)NC(=O)[C@@H](C)NC(=O)[C@H](CCCCN)NC(=O)[C@@H](NC(=O)Cc3cnc[nH]3)CC(=O)NCCOc3ccc(cc3)C[C@@H](C(N)=O)NC(=O)[C@]3(C)CCCN3C2=O)cc1 [Compound 106] ({Acetyl(2-(4-imidazolyl))}-DK[dA][Trp(5-F)][Trp(5-F)][Pro(cis-4-F)]TY(Me)[αMeP][AEF]-NH2; lactam 1-10) | 4.92 to 6.00

Same assay, conditions: PCSK9 Alexa FRET Standard assay, 0.5 nM PCSK9, 20 nM AF cyclic peptide Reagent A; read-out: IC50

Compound | pIC50
COc1ccc(C[C@@H]2NC(=O)[C@@H]([C@H](C)O)NC(=O)[C@@H]3C[C@H](F)CN3C(=O)[C@H](Cc3c[nH]c4ccc(F)cc34)NC(=O)[C@H](Cc3c[nH]c4ccc(F)cc34)NC(=O)[C@@H](C)NC(=O)Cc3ccc(cc3)CNC(=O)c3ccc(cc3)C[C@@H](C(N)=O)NC(=O)[C@]3(C)CCCN3C2=O)cc1 [Compound 080] ([X7][dA][Trp(5-F)][Trp(5-F)][Pro(cis-4-F)][dT]Y(Me)[αMeP][Phe(4-COOH)]-NH2; lactam N-9) | 4.92 to 6.00
COc1ccc(C[C@@H]2NC(=O)[C@H](Cc3cnc[nH]3)NC(=O)[C@H](CC(=O)O)NC(=O)[C@H](Cc3c[nH]c4ccc(F)cc34)NC(=O)[C@H](Cc3c[nH]c4ccc(F)cc34)NC(=O)[C@@H](C)NC(=O)[C@H](CCCC(=O)O)NC(=O)CCSCc3cccc(c3)CSCCNC(=O)[C@]3(C)CCCN3C2=O)cc1 [Compound 427] (cyclo([Aad][dA][Trp(5-F)][Trp(5-F)]DHY(Me)[αMeP][X4])) | 4.30 to 4.68
COc1ccc(C[C@@H]2NC(=O)[C@H](Cc3ncc[nH]3)NC(=O)[C@H](CC(=O)O)NC(=O)[C@H](Cc3c[nH]c4ccc(F)cc34)NC(=O)[C@H](Cc3c[nH]c4ccc(F)cc34)NC(=O)[C@@H](C)NC(=O)[C@H](CCCCN(C)C)NC(=O)CCSCc3cccc(c3)CSCCNC(=O)[C@]3(C)CCCN3C2=O)cc1 [Compound 464] (cyclo(D[Ala(imidazol-2-yl)]Y(Me)[αMeP][X4][Lys(Me2)][dA][Trp(5-F)][Trp(5-F)])) | 4.30 to 4.68
CO[C@@H](C)[C@@H]1NC(=O)[C@@H]2CCCN2C(=O)[C@H](Cc2c[nH]c3ccc(F)cc23)NC(=O)[C@H](Cc2c[nH]c3ccc(F)cc23)NC(=O)CNC(=O)[C@H](CCCCN)NC(=O)CCSCc2cccc(c2)CSCCNC(=O)[C@]2(C)CCCN2C(=O)[C@H](Cc2ccc(O)cc2)NC1=O [Compound 070] (cyclo(G[Trp(5-F)][Trp(5-F)]P[aThr](Me)Y[αMeP][X4]K)) | 4.30 to 4.68
COc1ccc(C[C@@H]2NC(=O)[C@H](Cc3cnc[nH]3)NC(=O)[C@H](CC(=O)O)NC(=O)[C@H](Cc3c[nH]c4ccc(F)cc34)NC(=O)[C@H](Cc3c[nH]c4ccc(F)cc34)NC(=O)[C@@H](C)NC(=O)[C@H](CNC(=O)COCCN)NC(=O)CCSCc3cccc(c3)CSCCNC(=O)[C@]3(C)CCCN3C2=O)cc1 [Compound 424] (cyclo(DHY(Me)[αMeP][X4][Dap](AEA)[dA][Trp(5-F)][Trp(5-F)])) | 7.00 to 9.96
COc1ccc(C[C@@H]2NC(=O)[C@H](Cc3cnc[nH]3)NC(=O)[C@H](CC(=O)O)NC(=O)[C@H](Cc3c[nH]c4ccc(F)cc34)NC(=O)[C@H](Cc3c[nH]c4ccc(F)cc34)NC(=O)[C@@H](C)NC(=O)CCCNC(=O)c3ccc(cc3)C[C@@H](C(N)=O)NC(=O)[C@]3(C)CCCN3C2=O)cc1 [Compound 432] ([GABA][dA][Trp(5-F)][Trp(5-F)]DHY(Me)[αMeP][Phe(4-COOH)]-NH2; lactam N-9) | 4.92 to 6.00
CC(=O)N[C@@H]1CCCC/C=C\CO[C@@H]2CCN(C(=O)[C@H](Cc3ccc(O)cc3)NC(=O)[C@H](Cc3cnc[nH]3)NC(=O)[C@H](CC(=O)O)NC(=O)[C@H](Cc3c[nH]c4ccc(F)cc34)NC(=O)[C@H](Cc3c[nH]c4ccc(F)cc34)NC(=O)CNC1=O)[C@@H]2C(N)=O [Compound 471] (Ac-[X57]G[Trp(5-F)][Trp(5-F)]DHY[X58]-NH2; staple (Z) 1-8) | 7.00 to 9.96
COc1ccc(C[C@@H]2NC(=O)[C@H](C(C)C)NC(=O)[C@@H]3CCCN3C(=O)[C@H](Cc3c[nH]c4ccc(F)cc34)NC(=O)[C@H](Cc3c[nH]c4ccc(F)cc34)NC(=O)[C@@H](C)NC(=O)[C@H](CCCCN)NC(=O)CCSCc3cccc(c3)CSC[C@@H](C(N)=O)NC(=O)[C@]3(C)CCCN3C2=O)cc1 [Compound 009] ([Mpa]K[dA][Trp(5-F)][Trp(5-F)]PVY(Me)[αMeP]C-NH2; linker 1-10 via mXylylene) | 4.30 to 4.68
COc1ccc(C[C@@H]2NC(=O)[C@H](Cc3cnc[nH]3)NC(=O)[C@H](CC(=O)O)NC(=O)[C@H](Cc3c[nH]c4ccc(F)cc34)NC(=O)[C@H](Cc3c[nH]c4ccc(F)cc34)NC(=O)[C@@H](C)NC(=O)[C@H](NC(C)=O)CCCCNC(=O)Cc3ccc(cc3)CNC(=O)CCC[C@@H](C(N)=O)NC(=O)[C@]3(C)CCCN3C2=O)cc1 [Compound 433] (Ac-[dK][dA][Trp(5-F)][Trp(5-F)]DHY(Me)[αMeP][Aad]-NH2; linker 1-9 via X6) | 6.00 to 7.00
CC(C)C[C@H]1C(=O)N[C@@H](Cc2ccc(O)cc2)C(=O)N2CCC[C@@]2(C)C(=O)N[C@H](C(N)=O)CSCc2cccc(c2)CSCCC(=O)N[C@@H](CCCCN)C(=O)NCC(=O)N[C@@H](Cc2c[nH]c3ccc(F)cc23)C(=O)N[C@@H](Cc2c[nH]c3ccc(F)cc23)C(=O)N2CCC[C@@]23CCN1C3=O [Compound 127] | 6.00 to 7.00
CCCCCC[C@@H]1NC(=O)CCSCc2cccc(c2)CSCCNC(=O)[C@]2(C)CCCN2C(=O)[C@H](Cc2ccc(OC)cc2)NC(=O)[C@H](Cc2ncc[nH]2)NC(=O)[C@H](CC(=O)O)NC(=O)[C@H](Cc2c[nH]c3ccc(F)cc23)NC(=O)[C@H](Cc2c[nH]c3ccc(F)cc23)NC(=O)[C@@H](C)NC1=O [Compound 442] (cyclo([Aoc(2)][dA][Trp(5-F)][Trp(5-F)]D[Ala(imidazol-2-yl)]Y(Me)[αMeP][X4])) | 7.00 to 9.96
CC(=O)N[C@H]1CCNC(=O)COc2ccc(cc2)C[C@@H](C(N)=O)NC(=O)[C@]2(C)CCCN2C(=O)[C@H](Cc2ccc(O)cc2)NC(=O)[C@H](Cc2cnc[nH]2)NC(=O)[C@H](CC(=O)O)NC(=O)[C@H](Cc2c[nH]c3ccc(F)cc23)NC(=O)[C@H](Cc2c[nH]c3ccc(F)cc23)NC(=O)CNC(=O)[C@H](C)NC1=O [Compound 352] (Ac-[Dab]AG[Trp(5-F)][Trp(5-F)]DHY[αMeP]Y-NH2; linker 1-10 via X2) | 4.30 to 4.68
COc1ccc(C[C@@H]2NC(=O)[C@H](Cc3cnc[nH]3)NC(=O)[C@H](CC(=O)O)NC(=O)[C@H](Cc3c[nH]c4ccc(F)cc34)NC(=O)[C@H](Cc3c[nH]c4ccc(F)cc34)NC(=O)[C@@H](C)NC(=O)[C@H](CCCCCC(=O)O)NC(=O)CCSCc3cccc(c3)CSCCNC(=O)[C@]3(C)CCCN3C2=O)cc1 [Compound 426] (cyclo([Asu][dA][Trp(5-F)][Trp(5-F)]DHY(Me)[αMeP][X4])) | 4.92 to 6.00
C[C@@]12CCCN1C(=O)[C@H](Cc1ccc(O)cc1)NC(=O)[C@H](Cc1cnc[nH]1)NC(=O)[C@H](CC(=O)O)NC(=O)[C@H](Cc1c[nH]c3ccc(F)cc13)NC(=O)[C@H](Cc1c[nH]c3ccc(O)cc13)NC(=O)CNC(=O)[C@H](CCCCN)NC(=O)CCSCc1cccc(c1)CSC[C@@H](C(N)=O)NC2=O [Compound 414] ([Mpa]KG[Trp(5-OH)][Trp(5-F)]DHY[αMeP]C-NH2; linker 1-10 via mXylylene) | 6.00 to 7.00
C#CCCC[C@@H]1NC(=O)[C@H](Cc2c[nH]c3ccc(F)cc23)NC(=O)[C@H](CCCN=[N+]=[N-])NC(=O)[C@@H](C)NC(=O)[C@H](C)NC(=O)CCSCc2cccc(c2)CSCCNC(=O)[C@]2(C)CCCN2C(=O)[C@H](Cc2ccc(OC)cc2)NC(=O)[C@H]([C@@H](C)O)NC1=O [Compound 078] (cyclo(A[dA][Orn(N3)][Trp(5-F)][X53]TY(Me)[αMeP][X4])) | 6.00 to 7.00
COc1ccc(C[C@@H]2NC(=O)[C@H](Cc3ncc[nH]3)NC(=O)[C@H](CC(=O)O)NC(=O)[C@H](Cc3c[nH]c4ccc(F)cc34)NC(=O)[C@H](Cc3c[nH]c4ccc(F)cc34)NC(=O)[C@@H](C)NC(=O)[C@H](CCC(N)=O)NC(=O)CCSCc3cccc(c3)CSCCNC(=O)[C@]3(C)CCCN3C2=O)cc1 [Compound 446] (cyclo(D[Ala(imidazol-2-yl)]Y(Me)[αMeP][X4]Q[dA][Trp(5-F)][Trp(5-F)])) | 4.92 to 6.00
COc1ccc(C[C@@H]2NC(=O)[C@H]([C@H](C)O)NC(=O)[C@@H]3C[C@H](F)CN3C(=O)[C@H](Cc3c[nH]c4ccc(F)cc34)NC(=O)[C@H](Cc3c[nH]c4ccc(F)cc34)NC(=O)[C@@H](C)NC(=O)[C@H](C)NC(=O)[C@@H](NC(C)=O)CCNC(=O)c3cccc(c3)C(=O)NCCC[C@@H](C(N)=O)NC(=O)[C@]3(C)CCCN3C2=O)cc1 [Compound 134] (Ac-[Dab]A[dA][Trp(5-F)][Trp(5-F)][Pro(cis-4-F)][aThr]Y(Me)[αMeP][Orn]-NH2; linker 1-10 via Isophthaloyl) | 4.30 to 4.68
COc1ccc(C[C@@H]2NC(=O)[C@H](Cc3ncc[nH]3)NC(=O)[C@H](CC(=O)O)NC(=O)[C@H](Cc3c[nH]c4ccc(F)cc34)NC(=O)[C@H](Cc3c[nH]c4ccc(F)cc34)NC(=O)[C@@H](C)NC(=O)[C@H](CCCC[N+](C)(C)C)NC(=O)CCSCc3cc(F)cc(c3)CSCCNC(=O)[C@]3(C)CCCN3C2=O)cc1 [Compound 462] (cyclo(D[Ala(imidazol-2-yl)]Y(Me)[αMeP][X3][Lys(Me3)][dA][Trp(5-F)][Trp(5-F)])) | 4.92 to 6.00
CC(=O)N[C@H]1CCCC/C=C/CO[C@H]2C[C@@H](C(N)=O)N(C2)C(=O)[C@H](Cc2ccc(O)cc2)NC(=O)[C@H](Cc2cnc[nH]2)NC(=O)[C@H](CC(=O)O)NC(=O)[C@H](Cc2c[nH]c3ccc(F)cc23)NC(=O)[C@H](Cc2c[nH]c3ccc(F)cc23)NC(=O)CNC(=O)[C@H](CCCCN)NC1=O [Compound 431] | 7.00 to 9.96
